Active and inactive are the calls of the source. The rule behind the calls is not given here.
What was measured:
[1] = test system: Infectious hematopoietic necrosis virus; experiment: Antiviral activity against IHNV infected in juvenile rainbow trout assessed as increase in IFN-1 gene expression in spleen administered intraperitoneally measured after 2 days by RT-qPCR analysis; format: functional, organism-based; details: route ip, time 2.0 day
[2] = test system: Infectious hematopoietic necrosis virus; experiment: Antiviral activity against IHNV infected in EPC cells (unknown origin) assessed as inhibition of viral G gene expression at 25 uM measured after 72 hrs by RT-qPCR analysis relative to control; format: functional
[3] = test system: Infectious hematopoietic necrosis virus; experiment: Antiviral activity against IHNV infected in EPC cells (unknown origin) assessed as mitochondrial length by TEM analysis (reference value: 0.2 to 0.7 um); format: functional
[4] = test system: Infectious hematopoietic necrosis virus; experiment: Antiviral activity against IHNV infected in EPC cells (unknown origin) assessed as reduction in cytopathic effect at >4 uM measured after 72 hrs by RT-qPCR analysis; format: functional, organism-based
[5] = test system: Infectious hematopoietic necrosis virus; experiment: Antiviral activity against IHNV infected in EPC cells (unknown origin) assessed as reduction in virus-induced disruption of mitochondrial membrane potential at 25 uM incubated for 72 hrs by JC-1 dye based analysis; format: functional, organism-based
[6] = test system: Infectious hematopoietic necrosis virus; experiment: Antiviral activity against IHNV infected in EPC cells (unknown origin) assessed as inhibition of viral M gene expression at 25 uM measured after 72 hrs by RT-qPCR analysis relative to control; format: functional
[7] = test system: Infectious hematopoietic necrosis virus; experiment: Antiviral activity against IHNV infected in juvenile rainbow trout assessed as decrease in erythrocytes in kidney administered intraperitoneally measured after 2 days by H and E staining based analysis; format: functional, organism-based; details: route ip, time 2.0 day
[8] = test system: Infectious hematopoietic necrosis virus; experiment: Antiviral activity against IHNV infected in EPC cells (unknown origin) assessed as cristae of varying lengths with attached granules in inner membrane of mitochondria by TEM analysis; format: functional, organism-based
[9] = test system: Infectious hematopoietic necrosis virus; experiment: Antiviral activity against IHNV infected in juvenile rainbow trout assessed as decrease in hemorrhage in spleen administered intraperitoneally measured after 2 days by H and E staining based analysis; format: functional, organism-based; details: route ip, time 2.0 day
[10] = test system: Infectious hematopoietic necrosis virus; experiment: Antiviral activity against IHNV infected in EPC cells (unknown origin) assessed as unchanged morphology in host cells at 25 uM pretreated virus with compound for 4 hrs followed by compound-treated virus infection in EPC cells measured after 72 hrs by microscopic analysis; format: functional, organism-based
[11] = test system: Infectious hematopoietic necrosis virus; experiment: Antiviral activity against IHNV infected in EPC cells (unknown origin) assessed as dense monolayer arrangement in host cells at 25 uM pretreated virus with compound for 4 hrs followed by compound-treated virus infection in EPC cells measured after 72 hrs by microscopic analysis; format: functional, organism-based
[12] = test system: Infectious hematopoietic necrosis virus; experiment: Antiviral activity against IHNV infected in juvenile rainbow trout assessed as decrease in viral titer in donor fishes on horizontal transmission between virus-infected donor fishes and non-infected recipient fishes at 25 uM immersed together in compound for 48 hrs; format: functional, organism-based
[13] = test system: Infectious hematopoietic necrosis virus; experiment: Antiviral activity against IHNV infected in juvenile rainbow trout assessed as decrease in viral G gene expression in spleen administered intraperitoneally measured after 1 to 4 days by RT-qPCR analysis; format: functional, organism-based; details: route ip, time 1-4 day
[14] = test system: Infectious hematopoietic necrosis virus; experiment: Antiviral activity against IHNV infected in EPC cells (unknown origin) assessed as reduction in virus-induced mitochondrial-lysosomal contact at 25 uM incubated for 72 hrs by Mito-Tracker/Lyso-Tracker dye based analysis; format: functional, organism-based
[15] = test system: Infectious hematopoietic necrosis virus; experiment: Antiviral activity against IHNV infected in EPC cells (unknown origin) assessed as elongated rod-shaped mitochondria with double layered membrane by TEM analysis; format: functional, organism-based
[16] = test system: Infectious hematopoietic necrosis virus; experiment: Antiviral activity against IHNV infected in juvenile rainbow trout assessed as decrease in viral titer in recipient fishes on horizontal transmission between virus-infected donor fishes and non-infected recipient fishes at 25 uM immersed together in compound for 48 hrs; format: functional, organism-based
[17] = test system: Infectious hematopoietic necrosis virus; experiment: Antiviral activity against IHNV infected in EPC cells (unknown origin) assessed as formation of tubular structures by cristae by TEM analysis; format: functional, organism-based
[18] = test system: Infectious hematopoietic necrosis virus; experiment: Antiviral activity against IHNV infected in EPC cells (unknown origin) assessed as inhibition of viral infection at 4 to 25 uM measured after 72 hrs by RT-qPCR analysis; format: functional, organism-based; details: dose 4-25 µM
[19] = test system: Infectious hematopoietic necrosis virus; experiment: Antiviral activity against IHNV infected in EPC cells (unknown origin) assessed as increase in virus-reduced average number of mitochondrial networks within cells at 25 uM incubated for 72 hrs by Mito-Tracker dye based analysis; format: functional, organism-based
[20] = test system: Infectious hematopoietic necrosis virus; experiment: Antiviral activity against IHNV infected in juvenile rainbow trout assessed as increase in IFN-1 gene expression in kidney administered intraperitoneally measured after 2 days by RT-qPCR analysis; format: functional, organism-based; details: route ip, time 2.0 day
[21] = test system: Infectious hematopoietic necrosis virus; experiment: Antiviral activity against IHNV infected in EPC cells (unknown origin) assessed as increase in cell proliferation at 4 uM measured after 72 hrs by CCK8 assay relative to control; format: functional
[22] = test system: Infectious hematopoietic necrosis virus; experiment: Antiviral activity against IHNV infected in juvenile rainbow trout assessed as increase in ISG15 gene expression in kidney administered intraperitoneally measured after 2 days by RT-qPCR analysis; format: functional, organism-based; details: route ip, time 2.0 day
[23] = test system: Infectious hematopoietic necrosis virus; experiment: Antiviral activity against IHNV infected in EPC cells (unknown origin) assessed as viral titer measured per 0.1 ml incubated for 96 hrs by Reed-Muench method (reference value: 1 10^7.77TCID50); format: functional
[24] = test system: Infectious hematopoietic necrosis virus; experiment: Antiviral activity against IHNV infected in EPC cells (unknown origin) assessed as decrease in virus-induced number of individual mitochondria per cell at 25 uM incubated for 72 hrs by Mito-Tracker dye based analysis; format: functional, organism-based
[25] = test system: Infectious hematopoietic necrosis virus; experiment: Antiviral activity against IHNV infected in EPC cells (unknown origin) assessed as reversal of chromatin condensation at 25 uM measured after 72 hrs by fluorescence microscopy; format: functional, organism-based
[26] = test system: Infectious hematopoietic necrosis virus; experiment: Antiviral activity against IHNV infected in juvenile rainbow trout assessed as increase in IRF3 gene expression in spleen administered intraperitoneally measured after 2 days by RT-qPCR analysis; format: functional, organism-based; details: route ip, time 2.0 day
[27] = test system: Infectious hematopoietic necrosis virus; experiment: Antiviral activity against IHNV infected in EPC cells (unknown origin) assessed as viral titer measured per 0.1 ml incubated for 72 hrs by Reed-Muench method (reference value: 1 10^6.74TCID50); format: functional
[28] = test system: Infectious hematopoietic necrosis virus; experiment: Antiviral activity against IHNV infected in juvenile rainbow trout assessed as decrease in hemorrhage in kidney administered intraperitoneally measured after 2 days by H and E staining based analysis; format: functional, organism-based; details: route ip, time 2.0 day
[29] = test system: Infectious hematopoietic necrosis virus; experiment: Antiviral activity against IHNV infected in EPC cells (unknown origin) assessed as inhibition of viral replication at 25 uM pre-infected with virus for 6 hrs followed by compound addition measured after 72 hrs by RT-qPCR analysis relative to control; format: functional
[30] = test system: Infectious hematopoietic necrosis virus; experiment: Antiviral activity against IHNV infected in EPC cells (unknown origin) assessed as uniform shaped nuclei at 25 uM measured after 72 hrs by fluorescence microscopy; format: functional, organism-based

COc1ccc(C[C@H]2COC(=O)[C@@H]2Cc2ccc(OCCCCCCCCn3cncn3)c(OC)c2)cc1OC
Activity [1]: Active | inhibition at 25 µM [2]: > 90% | Activity [3]: 0.8 um | Activity [4]: Active | Activity [5]: Active | inhibition at 25 µM [6]: > 90% | Activity [7]: Active | Activity [8]: Active | Activity [9]: Active | Activity [10]: Active | Activity [11]: Active | Activity [12]: Active | Activity [13]: Active | Activity [14]: Active | Activity [15]: Active | Activity [16]: Active | Activity [17]: Active; The Cristae Formed Tubular Structures, With The Inter-Membrane Space Forming The Mitochondrial Outer Chamber And Connecting Cristae Inner Spaces | inhibition [18]: Active | Activity [19]: Active | Activity [20]: Active | Activity [21]: >50% | Activity [22]: Active | Activity [23]: 1 10^5.48TCID50 | Activity [24]: Active | Activity [25]: Active | Activity [26]: Active | Activity [27]: 1 10^4.73TCID50 | Activity [28]: Active | inhibition at 25 µM [29]: 80% | Activity [30]: Active
